Consider one compound from patent US6362207B1, “Methods of treating viral infections with benzimidazoles” (priority 1995, dated 2002).

The test system of one assay is MX1 breast cells. The experiment in a line: MTT cell viability test, breast tumor cells. Conditions: 5 day incubation. In kind it is cell-based, human. On the technique in general: Tetrazolium dyes change colour on reduction, which living cells bring about.
A further assay relates to MV522. The experiment in a line: Lung cancer model MV522 after Taxol, tumor weight. The class given is in vivo, mice. How it is done:
The dose response effect of carbendazim in mice infected with various cancer types was studied in standard screening tests.
The results of these studies conducted to study the dosage response of carbendazim on various cancer types are summarized below. […] Efficacy of carbendazim has been shown in the following cancers:
At doses of 2000, 3000, 4000 and 5000 (mg/kg given twice weekly, p.o.) tumor growth was suppressed in a dose response and the tumor was shrunk in the 5000 mg/kg group. Day 1 is the start of the treatment with carbendazim.

Each structure is given as a SMILES string.

Take `COC(=O)Nc1nc2ccccc2[nH]1` [carbendazim, 2-methoxycarbonylamino-benzimidazole]: the “EC-50 Result” value stood at 0.829 ppm in the assay on MX1 breast cells (MX1, first column) and 0.856 ppm in the assay on MX1 breast cells (MX1, second column). Also, the tumor weight in the assay with MV522 (2000 mg/kg twice weekly p.o., c1-c3 = day 59, 63, 66, 2000 mg/kg, day 59) is given as 214.9 mg; with MV522 (2000 mg/kg twice weekly p.o., c1-c3 = day 59, 63, 66, 2000 mg/kg, day 63), 193.7 mg; with MV522 (2000 mg/kg twice weekly p.o., c1-c3 = day 59, 63, 66, 2000 mg/kg, day 66), 188.9 mg; in the assay on MV522 (3000 mg/kg twice weekly p.o., c1-c3 = day 59, 63, 66, 3000 mg/kg, day 59) it was 75.4 mg; in the assay on MV522 (3000 mg/kg twice weekly p.o., c1-c3 = day 59, 63, 66, 3000 mg/kg, day 63) it was 77 mg; with MV522 (3000 mg/kg twice weekly p.o., c1-c3 = day 59, 63, 66, 3000 mg/kg, day 66) it was 94.5 mg.
